From patent US20180200259A1 (priority 2015, published 2018)
Counter-ions that a name gives are not always drawn. Like-named read-outs stand apart in the source and are kept apart here.

How the values were obtained:
[1] = tested on: CA1 pyramidal neurons in the dorsal hippocampus; assay: Dendritic spine assessment (Afraxis ESP) after five days ip dosing; type: in vivo, mice; details: 0.1 mg/kg per day for five days
Description: Adult C57B16 mice, (8 weeks old) were administered vehicle or test sample, 0.005, 0.03, 0.07, 0.1 or 0.2 mg/kg, ip, per day for five days prior to sacrifice after rapid anesthetization with isofluorane. Brain tissue was sectioned into […] slices from anterior to posterior extremes.
Ballistic dye labelling was performed, followed by laser-scanning confocal microscopy (Olympus FV1000) using a 63× objective (1.42 NA) to scan individually labelled neurons at high resolution (0.103×0.103×0.33 μm voxels). Target neurons were identified in the brain region of interest by anatomical location and cell morphology. Microscopy was performed blind to experimental conditions. A minimum of 5 samples per animal were measured for each segment.
Afraxis ESP dendritic spine analysis and assessment of dendritic membrane integrity. Blind deconvolution (AutoQuant) was applied to raw three-dimensional digital images which were then analyzed for spine density and morphology by trained analysts, individual spines were measured manually for (a) head diameter, (b) length, and (c) neck thickness from image Z-stacks using custom-built Afraxis ESP software. Each dendrite was analyzed by 3 independent analysts. […]
Statistics. […] For all group comparisons of parametric values, statistical significance was determined using the analysis of variance test (ANOVA; SPSS). […]

Rat cortical neurons = assay: Neurite assessment: Aβ1-42 oligomer injury of cortical neurons (MAP-2); type: cell-based; details: 1 μM; Aβ oligomer 20 μM, 24 h
Description: Rat cortical neurons were cultured as described by Callizot et al (J Neurosci Res 2013; 91:706-716). On day II of culture, Aβ oligomer solution, 20 μM, was applied. The Aβ oligomer preparation, having an average weight of 90 kDa, prepared as described by Callizot et al (op cit) contained only diffusible species, not fibrils or protofibrils. Briefly, Aβ1-42 peptide at a concentration of 40 μM was dissolved in the culture medium, gently agitated for 3 days at 37° C. in the dark, and used immediately after dilution. Test compound and BDNF (50 ng/ml) were dissolved in culture medium (maximum of 0.1% DMSO final concentration) then pre-incubated with primary cortical neurons for 24 h before the Aβ1-42 oligomer solution application
The oligomers were incubated with the neurons and various concentrations of test compound or BDNF, 50 ng/ml, the positive control, for 24 hours, in 6 replicates per condition. Then the supernatant was removed and the neurons were fixed with a cold ethanol and acetic acid solution. The cells were permeabilized with 0.4% saponin and then incubated for 2 h with mouse monoclonal antibody […] microtubule-associated protein 2 (MAP-2). Subsequently, Alexa-Fluor 488 goat anti-mouse IgG was applied, and images were obtained and analyzed automatically.

Bv-2 microglial cells = assay: Aβ oligomer clearance measurement in Bv-2 microglial cell cultures; type: cell-based; details: 0.33 μM galantamine; 24 h before oligomerized Aβ1-42 (10 μM) for 6 h
Description: Aβ oligomers were prepared using beta-amyloid (1-42) from American Peptide (Product #62-0-80). One aliquot was dissolved in an adequate volume of TBS (50 mM Tris-Buffer, 150 mM NaCl, pH-7.4) to achieve a final concentration of 1.7 mg/ml (corresponding to 340 μM). The solution was sonicated for 2 minutes and then diluted 1:2 in water to obtain a final concentration of 170 μM. Next, the Aβ was allowed to aggregate at 4° C. for 48 hours. Prior to application, the solution was sonicated for another minute.
Bv-2 microglial cells were kept in culture medium (DMEM medium, 10% FBS, 2 mM glutamine, 1% Penc/Strep) until 80-90% confluency. Cells were maintained at 37° C., 95% humidity and 5% CO2. Afterwards, cells were seeded in culture medium on 24-well plates at a cell density of 1×10^5 cells per well. After 24 h, the medium was exchanged for the treatment medium (DMEM medium, 5% FBS, 2 mM glutamine). […] The medium was separated by affinity (removing monomers) and the oligomers not phagocytosed were disaggregated by hexafluoroisopropanol (HFIP) treatment and measured by MSD. […]
The immune assay was carried out according to the Mesoscale Discovery manual and plates were read on the Sector Imager (MSD). Analyte levels were evaluated according to adequate Aβ peptide standards (MSD). […] Data are presented as mean ±standard error of mean (SEM) Group differences are evaluated by one-way ANOVA.

[2] = tested on: adrenal chromaffin and human neuroblastoma cells; details: comparison cholinesterase inhibitor; cited from earlier work
[3] = tested on: mild to moderate AD patients; details: cited from earlier work

## COc1ccc2c3c1O[C@H]1C[C@@H](O)C=C[C@@]31CCN(C)C2 [Galantamine hydrobromide]
[1]
  spine density in apical dendritic samples: significant increase
Rat cortical neurons
  protective effect on neurite network reduced by Aβ oligomer: significant protective effect
Bv-2 microglial cells
  Aβ1-42 oligomers in the medium: reduced Aβ1-42 oligomers in the medium significantly

## Nc1c2c(nc3ccccc13)CCCC2 [tacrine]
[2]
  neuroprotective effect against induced apoptosis: did not occur

## Solanezumab: antibody directed at the central portion of Aβ
[3]; Expedition I
  functional decline as measured by the ADCS-ADL: not significantly affected
[3]; Expedition II
  reduction of functional decline as measured by the ADCS-ADL: 19%
[3]; patients not receiving cholinesterase inhibitors (no SOC)
  additional cognitive deterioration on the ADAS-cog versus placebo: 3.6 points
[3]; patients on memantine only
  additional cognitive deterioration on the ADAS-cog versus placebo: 4.1 points
